“And” between values parts separate entries of the source, which are not always exact repeats. Identical values can stand only once. Like-named read-outs stand apart in the source and are kept apart here.
Columns and labels:
[1] = Half-life in rat hepatocytes; assay type: in vitro ADME; conditions: for half-life: read-out: Half life of cmpds
Method: (§1) In another study, metabolism of compounds in hepatocytes from various species was examined. Hepatocytes were contacted with a compound, and the half-life of the compound was determined.

[2] = Metabolic stability, half-life and clearance in human liver microsomes; assay type: in vitro ADME; conditions: for CLhep: hepatic clearance where blood flow = 20 mL/min/kg
Method: (§2) Half-life and clearance rates for certain compounds were assayed with human liver microsomes and human hepatocytes. […] At each time point (0, 5, 15, 30, 60, 90 min) the reactions were stopped, vortexed and centrifuged. Supernatents were frozen until LC/MS/MS analysis. The results for human liver microsomes and human hepactocytes are summarized in TABLE 9, and TABLE 10, respectively. Certain compounds were assayed with human liver microsomes (HLM) and human hepatocytes, and metabolites were detected. Briefly, metabolic stability was tested at one TA concentration (e.g., 1 μM) in duplicate. […] Incubations were saved and used for metabolite identification using LC/MS/MS. […] The slope of the linear regression from log percentage remaining versus incubation time relationships (−k) was determined by linear regression fitting. From the individual log percentage remaining time profiles, the mean half-life and intrinsic clearance were reported. UHPLC-HRMS or UHPLC-MS/MS experiment was performed on the authentic test articles to check for possible common fragment ions. […] The metabolites were summarized based on their mass spectrometry peak areas.

[3] = Half-life in mouse hepatocytes; assay type: in vitro ADME; conditions: read-out: Half life of cmpds
Method: as §1

[4] = tested on: SKES cells (Ewing Sarcoma cell line); test: CCK-8 tetrazolium tumor cell growth inhibition, SKES; assay type: cell-based; conditions: Homo sapiens, 72 h, SKES cells, 3 days with compound, CCK-8 (TABLE 3)
Method: (§3) A modified tetrazolium salt assay using the CCK-8 kit (Sigma-Aldrich; St Louis, Mo.) was used to measure the inhibition of human tumor cell growth. Tumor cells (5000-7500 per well) were added to 96 well plates and allowed to attach for 4-5 hours. Compounds were serially diluted and added in triplicate at a concentration of 0.02 to 5 μM. DMSO was included as a vehicle control. Cells were incubated in the presence of compound for 3 days. After incubation CCK-8 reagent was added to each well and incubated for 2-4 hours. Viable cells were quantitated spectrophotometrically at a wavelength of 450 nm. Percent viability of each sample was calculated from the A450 values as follows: % viability=(A450 nm sample/A450 nm DMSO-treated cells×100). […] IC50 activities of particular compounds were determined using SKES cells (Ewing Sarcoma cell line).

[5] = Half-life in dog hepatocytes; assay type: in vitro ADME; conditions: for half-life: read-out: Half life of cmpds
Method: as §1

[6] = Half-life in human hepatocytes; assay type: in vitro ADME; conditions: read-out: Half life of cmpds
Method: as §1

[7] = Metabolic stability, half-life and clearance in human hepatocytes; assay type: in vitro ADME; conditions: for % remaining / half-life: Human hepatocytes; for CLhep: human hepatocytes, hepatic clearance where blood flow = 20 mL/min/kg
Method: as §2

[8] = not given; remark: listed apart in the source
[9] = tested on: PC3; test: CCK-8 tetrazolium tumor cell growth inhibition, PC3; assay type: cell-based; conditions: Homo sapiens, PC-3; PC3, Prostate, no ETS rearrangement
Method: as §3

[10] = tested on: A4573 tumor cells; test: A4573 xenograft study in mice; assay type: in vivo; conditions: A4573 tumors, 100 mg/kg bid oral, relative to vehicle control
[11] = Pharmacokinetics, continuous infusion study in dog; assay type: in vivo; conditions: for Vd / clearance / half-life: plasma, iv
Method: (§4) Certain pharmacokinetics parameters were determined for certain compounds in vivo for intravenous and oral administration. Briefly, compounds were formulated and administered using IV bolus, continuous IV infusion or oral administration. Blood was collected at multiple time points over 24 hours and processed into plasma. Plasma was analyses for parent using LC/MS/MS. Certain parameters for certain compounds were obtained in duplicate.

[12] = in vitro; conditions: mouse
[13] = tested on: TC71; test: CCK-8 tetrazolium tumor cell growth inhibition, TC71; assay type: cell-based; conditions: Homo sapiens, TC-71; TC71, ES, EWS-FLI1 Type 1
Method: as §3

[14] = not given; remark: listed apart in the source
[15] = tested on: A4573 tumor cells; test: similar rat xenograft study; assay type: in vivo; conditions: compared to the vehicle control
[16] = Pharmacokinetics after IV and oral administration; assay type: in vivo; conditions: BALB/c mice or Sprague Dawley rats; for Cmax / half-life / Tmax / bioavailability: plasma; for Tmax: read-out: Tmax
Method: as §4

[17] = tested on: A4573; test: CCK-8 tetrazolium tumor cell growth inhibition, A4573; assay type: cell-based; conditions: Homo sapiens; A4573, ES, EWS-FLI1 Type 3
Method: as §3

[18] = Pharmacokinetics, continuous infusion study in rat; assay type: in vivo; conditions: for Vd / clearance / half-life: plasma, iv
Method: as §4

[19] = not given; remark: listed apart in the source
[20] = tested on: LNCap; test: CCK-8 tetrazolium tumor cell growth inhibition, LNCap; assay type: cell-based; conditions: Homo sapiens, Prostate, rearranged ETV1
Method: as §3

[21] = tested on: MDA-MB-231; test: CCK-8 tetrazolium tumor cell growth inhibition, MDA-MB-231; assay type: cell-based; conditions: Homo sapiens; MDA-MB-231, Breast, increased ETV1
Method: as §3

[22] = tested on: PANC1; test: CCK-8 tetrazolium tumor cell growth inhibition, PANC1; assay type: cell-based; conditions: Homo sapiens, PANC-1; PANC1, Pancreas, no ETS rearrangement
Method: as §3

[23] = tested on: BxPC3; test: CCK-8 tetrazolium tumor cell growth inhibition, BxPC3; assay type: cell-based; conditions: Homo sapiens, BXPC-3; BxPC3, Pancreas, increased FLI1
Method: as §3

[24] = tested on: MCF7; test: CCK-8 tetrazolium tumor cell growth inhibition, MCF7; assay type: cell-based; conditions: Homo sapiens; MCF7, Breast, no ETS rearrangement
Method: as §3

[25] = in vitro; conditions: rat
[26] = mouse liver microsome, no cofactor, 60 min
[27] = dog liver microsome, no cofactor, 60 min
[28] = human liver microsome, no cofactor, 60 min
[29] = iv, 5 mg/kg, 5 mg/kg IV, captisol
[30] = iv, 10 mg/kg, 10 mg/kg IV, captisol
[31] = po, 25 mg/kg, 25 mg/kg po, labrasol:tetraglycol:water 72:8:20
[32] = po, 100 mg/kg, 100 mg/kg po, PEG-400/tween
[33] = po, 100 mg/kg, 100 mg/kg po, labrasol/tetraglycol
[34] = rat liver microsome, no cofactor, 60 min

COc1ccc(C(=O)CC2(O)C(=O)Nc3c(Cl)ccc(Cl)c32)cc1 (racemic) [Cmpd 1, 4,7-Dichloro-3-hydroxy-3-[2-(4-methoxyphenyl-2-oxoethyl)]-1,3-dihydroindol-2-one]
half-life [1]: 14.2 min | % remaining [2]: 5% | half-life [2]: 10.3 min | CLhep [2]: 1.037 L/h/kg | half-life [3]: 30.9 min | IC50 [4]: < 5 µM | half-life [5]: 16.7 min | half-life [6]: 45.5 min | % remaining [7]: 48% | half-life [7]: 226 min | CLhep [7]: 0.522 L/h/kg

CNc1ccc(C(=O)CC2(O)C(=O)Nc3c(Cl)ccc(Cl)c32)cc1 (racemic) [Cmpd 7, 4,7-dichloro-3-hydroxy-3-[2-[4-(methylamino)phenyl]-2-oxoethyl]-1H-indol-2-one]
% remaining [2]: 49% | half-life [2]: > 45 min | CLhep [2]: ~0.6924 L/h/kg | % remaining [7]: 100% | half-life [7]: > 240 min | CLhep [7]: <0.522 L/h/kg

O=C(CC1(O)C(=O)Nc2c(Cl)ccc(Cl)c21)c1ccc(C2CC2)cc1 (single isomer, unassigned) [Cmpd 14, 4,7-Dichloro-3-(2-(4-cyclopropylphenyl)-2-oxoethyl)-3-hydroxyindolin-2-one]
Remaining (NCF = 60 min) [26]: 102.0% | Remaining (NCF = 60 min) [8, 27]: 97.1% | half-life [1]: 27.4 min | IC50 [9]: > 5 µM | tumor growth inhibition (TGI) [10]: 57% | Css(3-24 h) ([11]; 10 mg/kg/day): 210 ng/mL and 0.56 μM | MRT24-inf ([11]; 10 mg/kg/day): 150 min | Css(3-24 h) ([11]; 25 mg/kg/day): 466 ng/mL and 1.24 μM | MRT24-inf ([11]; 25 mg/kg/day): 132 min | Vd ([11]; 10 mg/kg/day): 5.64 L/kg | clearance ([11]; 10 mg/kg/day): 2.02 L/h/kg | half-life ([11]; 10 mg/kg/day): 114 min | Vd ([11]; 25 mg/kg/day): 5.66 L/kg | clearance ([11]; 25 mg/kg/day): 2.24 L/h/kg | half-life ([11]; 25 mg/kg/day): 102 min | half-life ([12]; microsomes): 23.1 min | IC50 [13]: < 5 µM | Remaining (NCF = 60 min) [14, 28]: 104.5% | tumor growth inhibition (TGI) [15]: 53% | half-life [3]: 62.8 min | AUC ([16]; 5 mg/kg IV, captisol): 4131 h * (ng/mL) | AUC ([16]; 10 mg/kg IV, captisol): 6059 h * (ng/mL) | AUC ([16]; 25 mg/kg po, labrasol:tetraglycol:water 72:8:20): 13152 h * (ng/mL) | AUC ([16]; 100 mg/kg po, PEG-400/tween): 92219 h * (ng/mL) | AUC ([16]; 100 mg/kg po, labrasol/tetraglycol): 146167 h * (ng/mL) | Cmax [16, 29]: 10.9 µg/mL | half-life [16, 29]: 48 min | Tmax [16, 29]: 1.8 min | Cmax [16, 30]: 39.8 µg/mL | half-life [16, 30]: 85.8 min | Tmax [16, 30]: 1.8 min | Cmax [16, 31]: 2.77 µg/mL | bioavailability [16, 31]: 64% | half-life [16, 31]: 186 min | Tmax [16, 31]: 60 min | Cmax [16, 32]: 26 µg/mL | bioavailability [16, 32]: 100% | half-life [16, 32]: 230 min | Tmax [16, 32]: 0 min | Cmax [16, 33]: 33 µg/mL | bioavailability [16, 33]: 100% | half-life [16, 33]: 463 min | Tmax [16, 33]: 120 min | IC50 [17]: < 5 µM | Css(3-24 h) ([18]; 24 mg/kg/day): 344 ng/mL and 0.91 μM | MRT24-inf ([18]; 24 mg/kg/day): 66.6 min | Css(3-24 h) ([18]; 96 mg/kg/day): 1376 ng/mL and 3.7 μM | MRT24-inf ([18]; 96 mg/kg/day): 104 min | Vd ([18]; 24 mg/kg/day): 3.46 L/kg | clearance ([18]; 24 mg/kg/day): 2.92 L/h/kg | half-life ([18]; 24 mg/kg/day): 49.4 min | Vd ([18]; 96 mg/kg/day): 4.23 L/kg | clearance ([18]; 96 mg/kg/day): 2.98 L/h/kg | half-life ([18]; 96 mg/kg/day): 60 min | Remaining (NCF = 60 min) [19, 34]: 97.6% | IC50 [20]: < 5 µM | IC50 [21]: < 5 µM | IC50 [22]: > 5 µM | IC50 [23]: < 5 µM | half-life [5]: 20.3 min | IC50 [24]: > 5 µM | half-life [6]: 75.9 min | half-life ([25]; microsomes): 2.8 min

O=C(CC1(O)C(=O)Nc2c(Cl)ccc(Cl)c21)c1ccc(C2CC2)c(F)c1 (single isomer, unassigned) [Cmpd 37, 4,7-Dichloro-3-(2-(4-cyclopropyl-3-fluorophenyl)-2-oxoethyl)-3-hydroxyindolin-2-one]
half-life ([12]; liver microsomes): 20.7 min | Remaining (NCF = 60 min) [14, 28]: 103.4% | half-life ([25]; liver microsomes): 3.5 min

O=C(CC1(O)C(=O)Nc2c(Cl)ccc(Cl)c21)c1ccc(C2CC2)cc1F (single isomer, unassigned) [Cmpd 39, 4,7-Dichloro-3-(2-(4-cyclopropyl-2-fluorophenyl)-2-oxoethyl)-3-hydroxyindolin-2-one]
Remaining (NCF = 60 min) [14, 28]: 100.0% | half-life ([25]; liver microsomes): 3 min

CCOc1ccc2ccc(=O)oc2c1 [7-Ethoxycoumarin, reference compound]
half-life [1]: 38.2 min | half-life [3]: 37.9 min | Half life of cmpds [5]: 9.14 min | half-life [6]: 45.3 min

O=c1ccc2ccc(O)cc2o1 [7-Hydroxycoumarin, reference compound]
Half life of cmpds [1]: 12.41 min | half-life [3]: 15.8 min | half-life [5]: 9.38 min | half-life [6]: 20.8 min

O=C(O)Cc1ccccc1Nc1c(Cl)cccc1Cl [Diclofenac, reference compound]
Remaining (NCF = 60 min) (mouse, microsomes, 1 h): 88.1% | Remaining (NCF = 60 min) ([8]; dog, microsomes, 1 h): 89.6% | half-life ([12]; microsomes): 39.2 min | Remaining (NCF = 60 min) ([14]; human, microsomes, 1 h): 77.8% | Remaining (NCF = 60 min) ([19]; rat, microsomes, 1 h): 94.1%

C[C@]12CC[C@H]3[C@@H](CCC4=CC(=O)CC[C@@]43C)[C@@H]1CC[C@@H]2O [Testosterone, reference compound]
Remaining (NCF = 60 min) [26]: 83.6% | Remaining (NCF = 60 min) [8, 27]: 91.0% | half-life ([12]; microsomes): 3.3 min | Remaining (NCF = 60 min) [14, 28]: 88.1% | Remaining (NCF = 60 min) [19, 34]: 87.3%
